The text below walks through data of publication PMC2667100 (Molecular and cellular endocrinology, 2008).

Where a chain is given by its changes, count along the chain named. Like-named read-outs stand apart in the source and are kept apart here.

Test [1] deals with MCF-7 Tet-off 3β-HSD1 aromatase cells. Nature of the test: Inhibition of DHEA-stimulated proliferation. Type of test: cell-based, human. The conditions noted are these: for fold higher affinity, 3β-HSD1 cells relative to 3β-HSD2 cells (IC50): ratio of proliferation IC50 values.
Test [2] relates to MCF-7 Tet-off 3β-HSD2 aromatase cells. Nature of the test: Inhibition of DHEA-stimulated proliferation. The class given is cell-based, human. The conditions noted are these: DHEA 5 nM, concentration-dependent.
For test [3], the target named is T1, purified human 3β-HSD1 (Homo sapiens, UniProt P14060). Nature of the test: Substrate and cofactor kinetics of the isomerase activity. Type of test: biochemical. To be noted: 27°C, pH 7.4.
T1 sequence (P14060 whole entry): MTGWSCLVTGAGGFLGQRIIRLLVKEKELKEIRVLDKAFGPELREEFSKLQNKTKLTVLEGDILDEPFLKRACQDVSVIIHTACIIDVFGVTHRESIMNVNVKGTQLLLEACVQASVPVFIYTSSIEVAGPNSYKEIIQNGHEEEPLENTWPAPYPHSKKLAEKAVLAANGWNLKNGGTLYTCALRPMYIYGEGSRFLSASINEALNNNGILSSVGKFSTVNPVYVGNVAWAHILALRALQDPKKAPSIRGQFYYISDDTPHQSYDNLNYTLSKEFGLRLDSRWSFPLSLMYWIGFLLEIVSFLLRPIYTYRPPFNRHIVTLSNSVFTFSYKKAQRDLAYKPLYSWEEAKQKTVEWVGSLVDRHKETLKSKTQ
Test [4] addresses T2, purified human 3β-HSD2 (Homo sapiens, UniProt P26439).
T2 sequence (P26439 1-372): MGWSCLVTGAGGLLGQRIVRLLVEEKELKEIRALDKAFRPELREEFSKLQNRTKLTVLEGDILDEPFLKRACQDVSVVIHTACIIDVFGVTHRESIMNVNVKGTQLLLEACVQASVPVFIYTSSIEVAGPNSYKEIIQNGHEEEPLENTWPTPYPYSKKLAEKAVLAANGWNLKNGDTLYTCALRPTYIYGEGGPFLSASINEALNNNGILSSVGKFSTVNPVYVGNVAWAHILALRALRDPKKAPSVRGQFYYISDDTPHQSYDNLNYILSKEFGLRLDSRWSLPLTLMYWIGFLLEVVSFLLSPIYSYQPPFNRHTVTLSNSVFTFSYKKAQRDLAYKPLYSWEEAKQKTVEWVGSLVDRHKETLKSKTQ
The description is as above. The class given is biochemical. The conditions noted are these: 27°C, pH 7.4.

The target in test [5] is T3, purified human P195R-2 mutant of 3β-HSD2 (Homo sapiens, UniProt P26439, P195R).
T3 sequence (P26439 1-372 P195R): T2 sequence (P26439 1-372) with P195R
The description is as above. The class given is biochemical. To be noted: 27°C, pH 7.4.

The target in test [6] is T2, purified human 3β-HSD2. The experiment in a line: Inhibition kinetics of purified enzyme. Type of test: biochemical. To be noted: for mode of inhibition: Dixon analysis.
The target in test [7] is T1, purified human 3β-HSD1. Nature of the test: Inhibition kinetics of purified enzyme. The class given is biochemical.
In test [8] the target is T3, purified human P195R-2 mutant of 3β-HSD2. The experiment in a line: Inhibition kinetics of purified enzyme. The class given is biochemical.
Test [9] has as its system MCF-7 Tet-off 3β-HSD2 aromatase cells. The experiment in a line: Stimulation of proliferation. The conditions noted are these: for stimulation of cell growth: no dox; for EC50: Homo sapiens, MCF7, 240 h, read-out: EC50, stimulation of growth. Type of test: cell-based, human.
Test [10] relates to MCF-7 Tet-off 3β-HSD1 aromatase cells. The experiment in a line: Stimulation of proliferation. The conditions noted are these: for stimulation of cell growth: no dox; for EC50: Homo sapiens, MCF7, 240 h, read-out: EC50, stimulation of growth. Type of test: cell-based, human.
The target in test [11] is T3, purified human P195R-2 mutant of 3β-HSD2. Nature of the test: Substrate and cofactor kinetics of the 3β-HSD activity. The class given is biochemical.
For test [12], the target named is T2, purified human 3β-HSD2. Described as above. To be noted: 27°C, pH 7.4. Type of test: biochemical.
Test [13] deals with MCF-7 Tet-off 3β-HSD1 and 3β-HSD2 aromatase cells. Nature of the test: DHEA stimulation of proliferation, mean over both recombinant cell lines. The class given is cell-based. To be noted: Homo sapiens, MCF7, read-out: mean EC50, stimulation of proliferation.
Test [14] has as its target T1, purified human 3β-HSD1. Nature of the test: Substrate and cofactor kinetics of the 3β-HSD activity. Type of test: biochemical. To be noted: 27°C, pH 7.4.
Test [15] relates to MCF-7 cells. Nature of the test: Proliferation of MCF-7 cells in the absence of DHEA substrate. The class given is cell-based, human.
The mark [16] stands for this setting: 5-androstene-3,17-dione 20–100 μM, NADH 0.05 mM.
[17] abbreviates: DHEA 8.0 or 20.0 μM, NAD+ 0.2 mM, 27 °C, pH 7.4.
Setting [18] is: NADH 0–50 μM, 5-androstene-3,17-dione 100 μM.
Where [19] appears, read: read-out: Km, isomerase cofactor (allosteric activator), NADH 0–50 μM, 5-androstene-3,17-dione 100 μM.
Setting [20] is: read-out: Km, 3β-HSD cofactor, NAD+ 10–200 μM, DHEA 100 μM.

In the case of 4-hydroxy-tamoxifen, the “effect on DHEA-stimulated proliferation” value in [1] (DHEA 5 nM, concentration-dependent) is given as “decreases the DHEA-stimulated proliferation”; in test [2] it was “decreases the DHEA-stimulated proliferation”.
For the molecule `C[C@]12CCC(=O)CC1=CC[C@@H]1[C@@H]2CC[C@]2(C)C(=O)CC[C@@H]12` [5-androstene-3,17-dione], the results for the “kcat, isomerase substrate” value in [3] (setting [16]), in [4] (setting [16]) and in test [5] (setting [16]) were 0.837 ± 0.0333 s⁻¹, 1.36 ± 0.1 s⁻¹ and 2.18 ± 0.163 s⁻¹, respectively. The Km in [5] (read-out: Km, isomerase substrate, 5-androstene-3,17-dione 20–100 μM, NADH 0.05 mM) is 119 ± 5 µM.
Take `CC(=O)OC1CCC2C3CCC45OC4C(O)=C(C#N)CC5(C)C3CCC12C` (stereo not drawn) [17β-acetoxy-trilostane]: the Ki in [6] (setting [17]) amounted to 1590 ± 100 nM; in test [7] (DHEA 4.0 or 8.0 μM, NAD+ 0.2 mM, 27 °C, pH 7.4) it was 430 ± 30 nM; in test [8] (setting [17]), 390 ± 30 nM. The mode of inhibition entry in [6] is reported as “non-competitive”.
In the case of `C[C@]12CCC(=O)C=C1CC[C@@H]1[C@@H]2CC[C@]2(C)C(=O)CC[C@@H]12` [Androstenedione, androstenedione], the “stimulation of cell growth” value in test [9] and in test [10] was “stimulates the proliferation” throughout.
For the molecule `C[C@]12CC[C@H](O)CC1=CC[C@@H]1[C@@H]2CC[C@]2(C)C(=O)CC[C@@H]12` [DHEA, Dehydroepiandrosterone], the “kcat, 3β-HSD substrate” value was 0.158 ± 0.012 s⁻¹ in test [11] (DHEA 2–100 μM, NAD+ 0.2 mM, 27°C, pH 7.4); 0.115 ± 0.0083 s⁻¹ in [12] (DHEA 2–100 μM, NAD+ 0.2 mM); 0.055 ± 0.0033 s⁻¹ in test [14] (DHEA 2–100 μM, NAD+ 0.2 mM). Moreover, the “fold higher affinity for substrate, P195R-2 vs wild-type 3β-HSD2 (Km)” value in [11] (ratio of Km values) stood at 3.6 fold. The Km in test [11] (read-out: Km, 3β-HSD substrate, DHEA 2–100 μM, NAD+ 0.2 mM, 27°C, pH 7.4) was determined as 13.3 ± 2.5 µM. Also, the EC50 in test [13] worked out at 5 nM. Also, the “stimulation of cell growth” value in [9] and in [10] was “stimulated” in each case.
As for `C[C@]12CC[C@H](OS(=O)(=O)O)CC1=CC[C@@H]1[C@@H]2CC[C@]2(C)C(=O)CC[C@@H]12` [DHEA-S, dehydroepiandrosterone-sulfate], the “stimulation of cell growth” value in [9] and in test [10] was “stimulated” each time.
In the case of `NC(=O)C1=CN([C@@H]2O[C@H](COP(=O)(O)OP(=O)(O)OC[C@H]3O[C@@H](n4cnc5c(N)ncnc54)[C@H](O)[C@@H]3O)[C@@H](O)[C@H]2O)C=CC1` [NADH], the “kcat, isomerase cofactor (allosteric activator)” value came to 0.75 ± 0.03 s⁻¹ in [3] (setting [18]), 1.65 ± 0.107 s⁻¹ in [4] (setting [18]) and 1.49 ± 0.0967 s⁻¹ in test [5] (setting [18]). The values for the Km in [3] (setting [19]), in test [4] (setting [19]) and in [5] (setting [19]) were 4.6 ± 0.2 µM, 12.6 ± 0.9 µM and 10 ± 0.2 µM, respectively.
For `NC(=O)c1ccc[n+]([C@@H]2O[C@H](COP(=O)([O-])OP(=O)(O)OC[C@H]3O[C@@H](n4cnc5c(N)ncnc54)[C@H](O)[C@@H]3O)[C@@H](O)[C@H]2O)c1` [NAD^+], the “kcat, 3β-HSD cofactor” value in test [11] (NAD+ 10–200 μM, DHEA 100 μM, 27°C, pH 7.4) amounted to 0.153 ± 0.005 s⁻¹; in test [12] (NAD+ 10–200 μM, DHEA 100 μM) it was 0.118 ± 0.01 s⁻¹; in test [14] (NAD+ 10–200 μM, DHEA 100 μM), 0.0583 ± 0.0033 s⁻¹. The Km in test [11] (read-out: Km, 3β-HSD cofactor, NAD+ 10–200 μM, DHEA 100 μM, 27°C, pH 7.4) worked out at 56.4 ± 3.2 µM; in [12] (setting [20]), 86.3 ± 5.6 µM; in [14] (setting [20]) it was 34.1 ± 1.7 µM.
As for `C[C@]1(O)CC[C@H]2[C@@H]3CC[C@@]45O[C@]4(C)C(O)=C(C#N)C[C@]5(C)[C@H]3CC[C@@]21C` [epostane], in test [15], the “ER-agonist activity (stimulation of proliferation)” value (“ER-agonist activity” below) is on record as “none of these compounds has ER-agonist activity”. In addition, the “fold higher affinity, 3β-HSD1 cells relative to 3β-HSD2 cells (IC50)” value in test [1] is listed as 12 fold.
With `C[C@]12CC[C@@H]3c4ccc(O)cc4CC[C@H]3[C@@H]1CC[C@@H]2O` [estradiol], the EC50 in test [9] came to 0.32 nM; in test [10] it was 0.24 nM.
On to `C[C@]12CC[C@@H]3c4ccc(O)cc4CC[C@H]3[C@@H]1CCC2=O` [estrone], for which the EC50 in [9] amounted to 0.34 nM; in test [10] it was 0.39 nM.
`N#Cc1ccc(C(c2ccc(C#N)cc2)n2cncn2)cc1` [letrozole]: in [15], the “ER-agonist activity” value is listed as “none of these compounds has ER-agonist activity”.
Consider `C[C@]12CC[C@H]3[C@@H](CC[C@@]45O[C@@H]4C(O)=C(C#N)C[C@]35C)[C@@H]1CC[C@@H]2O` [trilostane, 2α-cyano-4α,5α-epoxy-17β-ol-androstane-3-one], for which the Ki in [6] was 1600 ± 100 nM; in [7] it was 100 ± 10 nM; in test [8], 190 ± 20 nM. Moreover, in test [6], the mode of inhibition result was “noncompetitively”. Moreover, in test [7] (purified enzymes), the “fold higher affinity for 3β-HSD1 than 3β-HSD2 (Ki)” value came out at 16 fold. In addition, the “ER-agonist activity” value in test [15] was “none of these compounds has ER-agonist activity”. For the same molecule, the “fold higher affinity, 3β-HSD1 cells relative to 3β-HSD2 cells (IC50)” value in test [1] was determined as 16 fold.

By Km is commonly meant the concentration of substrate that gives half-maximal velocity. What is called Ki is a measure of affinity in units of concentration, obtained from inhibition or displacement. Low values mean a stronger hold on the target, high ones a looser hold on the target.
